Data as given in patent US20220040136A1, “TREATMENT OF VULVOVAGINAL DISORDERS” (University of Rochester, priority 2018, published 2022).

Legend:
[1] = system: Mouse vulvar tissue; assay: Mouse vulvar explants (4 mm punch biopsy), IL-1β-stimulated PGE2 production; assay type: cell-based; conditions: pre-treatment 18 hours, then IL-1β 10 pg/ml 18 hours; range of doses, as low as 1 nM; FIG. 6
Description: FIG. 6 is a diagram showing that SPMs inhibit PGE2 production from mouse vulvar tissue. Mouse vulvar tissue (4 mm punch biopsies) was collected and bisected then pre-treated in culture medium with either Maresin 1 or RvD2 at indicated concentrations for 18 hours, followed by an additional 18 hours stimulation with IL-1β (10 pg/ml). Culture medium was collected and analyzed for PGE2 content. Mean+/−SEM; n=3 replicate cultures. ANOVA * p<0.05 vs. vehicle.
Although SPM structure and therapeutic efficacy is conserved across species,^5-7 inventors first confirmed that mouse vulvar tissues responded to SPM treatment in vitro by culturing mouse vulvar explants (4 mm punch biopsy). The explants were stimulated with IL-1, and then assays were carried to assess the ability of Maresin 1 or RvD2 to reduce PGE2 production under the established pre-treatment regimen.

[2] = system: C57BL/6 mice; assay: Mouse model of LPV (zymosan-induced vulvar allodynia), topical Maresin 1; assay type: in vivo; conditions: topical 1 μg/mouse/day, daily for 4 weeks
From the text: FIG. 9 is a diagram showing that PGE2 in vaginal lavage is associated with pain threshold. After induction of allodynia for up to 6 weeks (indicated by reduced pain threshold, red line), Maresin 1 was applied to C57BL/6 mouse vulvas to reduce pain and increase pain threshold. PGE2 content in vaginal lavage samples (blue line) rapidly increases during the induction phase, indicating pain-associated inflammation waning with treatment. SEM shown, n=8.
In the mouse model, zymosan (a proinflammatory yeast cell wall preparation) was used to induce sustained vulvar allodynia, measured by pain threshold testing. […]
Using this approach, inventors confirmed that one could induce vulvar allodynia, measure pain responses via mechanical threshold determination, and assess treatment responses. However, inventors implemented several modifications to improve the robustness of the model including the following: 1) use a genetically tractable inbred strain, 2) validation of the use of an electronic von Frey (EvF) system, 3) assessment of the impact of behavioral conditioning on pain response, 4) weekly collection of vulvovaginal lavages for proinflammatory mediator quantification, and 5) testing the ability of a selected SPM (e.g., Maresin 1) to modulate pain and inflammation in our new model. […]

For `CC/C=C\C/C=C\C[C@H](O)\C=C/C=C/C=C/[C@H](O)C/C=C\CCC(=O)O` [Maresin 1, 7R,14S-docosa-4Z,8E,10E,12Z,16Z,19Z-hexaenoic acid], the “PGE2 responses following IL-1β treatment” value [1] was “significantly suppressed”, the “PGE2 levels in vaginal lavage” value [2] was “suppressed and maintained at levels below baseline” and the “pain threshold (electronic von Frey)” value ([2]; after allodynia induction) was “complete restoration to the pre-induction thresholds”.
